Source: patent US20260109678A1, “SUBSTITUTED PHENOTHIAZINES AS FERROPTOSIS INHIBITORS” (Universiteit Antwerpen, priority 2022, published 2026)
In brackets after ≈: the same amount, converted by molar mass. Counter-ions that a name gives are not always drawn.

Experiments:
[1] = Fluorescence-enabled inhibited autoxidation (FENIX) assay; format: biochemical; conditions: RTA 2 μM, liposomes 1 mM; for Logkinh: FENIX assay; for kinh (10^4 M^−1s^−1) ± SD: inhibition rate constant, STY-BODIPY 1 μM, DTUN initiator, 37° C.
Experimental: Unless otherwise stated, laboratory reagent grade solvents were used. Reagents were obtained from various commercial sources and were used without any prior purification. L-α-phosphatidylcholine (Egg, Chicken), powder was purchased from Merck Life Science B.V.. DTUN and STY-BODIPY were synthesized according to methods described in Shah et al. (2019) Cell Chem. Biol. 26, 1594-1607. Fluorescence was measured using the UV/vis spectrophotometer Synergy MX, Biotek with Gen5.
In order to quantify radical trapping antioxidant activity in phospholipid bilayers to a clear bottom black-walled 96-well plate for fluorescence-base assays (Invitrogen by Thermo Fisher Scientific) was added 250 μL of a solution containing liposomes (1 mM), styrene-conjugated BODIPY (STY-BODIPY, 1 μM), and the respective radical trapping antioxidant (RTA, 2 μM). The solutions were made in larger volumes in Eppendorfs, pre-mixed and 250 μL aliquot was transferred to each well. The plate was incubated for 10 minutes at 37° C. in the BioTek SynergyMx plate reader, followed by a fast-mixing protocol for 5 minutes. The plate was ejected from the plate reader and autoxidation was initiated by the addition of a 50 μL aliquot of (E)-1,2-bis((2-methyldecan-2-yl)oxy)diazene (DTUN, 0.2 mM in EtOH/PBS 3/47, v/v), followed by another mixing protocol for 5 minutes. Data were acquired by excitation probes at 488 nm and emission was measured at 518 nm (read intervals 1.0 min). Kinetic read parameters: (i) optic position: bottom, (ii) gain: 80, (iii) bandwidth: 9.0. The results of the FENIX assay are presented in Table 2 as inhibition rate constants (kinh), logkinh and stoichiometries (n) of tested compounds.

[2] = Kinetic solubility (turbidimetric method); format: physicochemical; conditions: aqueous buffer, kinetic from dmso stock, PBS buffer pH 7.4, 2 hours at 37° C., read-out: Kin. solubility

Row | Structure (SMILES) | Logkinh [1] | kinh (10^4 M^−1s^−1) ± SD [1] | solubility at 2 h [2] [µM]
1 | CNCCNC(=O)c1ccc2c(c1)Sc1ccccc1N2 [CPD-033, N-(2-(methylamino)ethyl)-10H-phenothiazine-3-carboxamide dihydrochloride] | 2.68 ± 0.07 | 1.21 ± 0.01 10^4 M^−1s^−1 | –
2 | NCCNC(=O)c1ccc2c(c1)Sc1ccccc1N2 [CPD-034, N-(2-aminoethyl)-10H-phenothiazine-3-carboxamide dihydrochloride] | 2.41 ± 0.13 | 1.23 ± 0.01 10^4 M^−1s^−1 | –
3 | O=C(c1ccc2c(c1)Sc1ccccc1N2)N1CCNCC1 [CPD-035, (10H-phenothiazin-3-yl)(piperazin-1-yl)methanone dihydrochloride] | 2.51 ± 0.05 | 1.26 ± 0.04 10^4 M^−1s^−1 | –
4 | O=C(NCCN1CCNCC1)c1ccc2c(c1)Sc1ccccc1N2 [CPD-036, N-(2-(piperazin-1-yl)ethyl)-10H-phenothiazine-3-carboxamide trihydrochloride] | 2.30 ± 0.09 | 1.24 ± 0.04 10^4 M^−1s^−1 | –
5 | O=Cc1ccc2c(c1)Sc1ccccc1N2 [CPD-037, 10H-phenothiazine-3-carbaldehyde] | – | – | 12.5 to 50 (≈ 2.84 to 11.4 µg/mL)
6 | c1ccc2c(c1)Nc1ccc(CNCCN3CCOCC3)cc1S2 [CPD-038] | 3.77 ± 0.16 | 1.03 ± 0.01 10^4 M^−1s^−1 | –
